≈ marks a conversion by molar mass, not a printed value.
Experiments:
Escherichia coli = test: in vitro antibacterial evaluation, MIC by broth dilution; type: cell-based; conditions: 18 hours at 35° C.
[1] = anatomic pathology (histopathology of heart and kidney) in mice; type: in vivo; conditions: CD-1 mice, 20 mg/kg intravenously daily for 9 days, necropsy day 10, microscopic histopathology
Protocol: Samples of tissues from necropsied mice were formalin-fixed, paraffin-embedded, sectioned, stained with hematoxylin and eosin, and examined microscopically. Histopathologic findings were recorded. These findings were subjectively graded on a scale corresponding to slight, mild, moderate, marked and severe as compared to untreated controls.

Streptococcus sp. = test: in vitro antibacterial evaluation, MIC by broth dilution; type: cell-based; conditions: broth dilution, 18 hours at 35° C.
Method in brief: (§1)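 Read-out: the lowest concentration at which the test strain fails to grow. Serial dilutions (64-0.06 μg/mL) in Muller-Hinton II […], 5×10^5 CFU/mL inoculum, NCCLS M7-A2 procedure.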

Staphylococcus sp. = test: as above; type: cell-based; conditions: broth dilution, 18 hours at 35° C.
Method in brief: as §1

Enterococcus sp. = test: as above; type: cell-based; conditions: broth dilution, 18 hours at 35° C.
Method in brief: as §1

[2] = tested on: Staphylococcus aureus-SMITH (GC 4543); test: acute lethal infection in mice; type: in vivo; conditions: acute lethal infection, female CD-1 mice, intraperitoneal challenge, intravenous 30 min. after infection, 7 day survival
Method in brief: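 Female CD-1 mice (20±2 g) got an intraperitoneal bacterial challenge lethal to untreated controls within 24–48 hr. Compound was dosed intravenously 30 min after infection, five mice per dose. ED50 was calculated from 7-day survival pooled across 3 tests.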

For CC(c1ccccc1)C1NC(=O)CNC(=O)C(CO)NC(=O)C(CC2CNC(=N)N2C2OC(CO)C(O)C(O)C2O)NC(=O)C(CC2CNC(=N)N2)NC(=O)C(Cc2ccc(OC3OC(CO)C(OC4OC5COC6(OC5C(O)C4O)C4CC5CC(C4)CC6C5)C(O)C3O)cc2)NC1=O (stereo not drawn) [Example 219, Cyclo[3-(2-iminoimidazolidin-4-yl)alanyl-3-(3-hexopyranosyl-2-iminoimidazolidin-4-yl)-alanylserylglycyl-β-methylphenylalanyl-O-[4-O-[4,6-O-(2-adamantylidene)hexopyranosyl]-hexopyranosyl]tyrosyl]], the “MIC Escherichia coli (ATCC 25922)” value (Escherichia coli) was 64 µg/mL (≈ 45.9 µM), the “MIC Escherichia coli (GC 4559)” value (Escherichia coli) was 64 µg/mL (≈ 45.9 µM) and the “MIC Escherichia coli (GC 4560)” value (Escherichia coli) was 4 µg/mL (≈ 2.87 µM). The “Anatomical Pathology (Day 10), Heart” value [1] was 0, the “Anatomical Pathology (Day 10), Kidney” value [1] was “+++” and the “MIC Streptococcus agalactiae (GC 4564)” value (Streptococcus sp.) was 2 µg/mL (≈ 1.43 µM). The “MIC Streptococcus pneumoniae (ATCC 6301)” value (Streptococcus sp.) was 0.5 µg/mL (≈ 0.358 µM), the “MIC Streptococcus pneumoniae (GC 1894)” value (Streptococcus sp.) was 1 µg/mL (≈ 0.717 µM) and the “MIC Streptococcus pneumoniae (GC 4565)” value (Streptococcus sp.) was 2 µg/mL (≈ 1.43 µM). For the same compound, the “MIC Streptococcus pyogenes (GC 4563)” value (Streptococcus sp.) was 2 µg/mL (≈ 1.43 µM), the “MIC Streptococcus pneumoniae (ATCC 6301)” value (Streptococcus sp.; inoculum 5×10^5 CFU/mL, strain ATCC 6301) was 0.5 µg/mL (≈ 0.358 µM) and the “MIC Streptococcus pneumoniae (GC 1894)” value (Streptococcus sp.; inoculum 5×10^5 CFU/mL, strain GC 1894) was 1 µg/mL (≈ 0.717 µM). The “MIC Streptococcus pyogenes (GC 4563)” value (Streptococcus sp.; inoculum 5×10^5 CFU/mL, strain GC 4563) was 2 µg/mL (≈ 1.43 µM), the “MIC Streptococcus agalactiae (GC 4564)” value (Streptococcus sp.; inoculum 5×10^5 CFU/mL, strain GC 4564) was 2 µg/mL (≈ 1.43 µM) and the “MIC Streptococcus pneumoniae (GC 4565)” value (Streptococcus sp.; inoculum 5×10^5 CFU/mL, strain GC 4565) was 2 µg/mL (≈ 1.43 µM). The “MIC Staphylococcus aureus (ATCC 29213)” value (Staphylococcus sp.; strain ATCC 29213) was 4 µg/mL (≈ 2.87 µM), the “MIC Staphylococcus aureus (GC 1131)” value (Staphylococcus sp.; strain GC 1131) was 4 µg/mL (≈ 2.87 µM) and the “MIC Staphylococcus aureus (GC 3051)” value (Staphylococcus sp.; strain GC 3051) was 2 µg/mL (≈ 1.43 µM). For the same compound, the “MIC Staphylococcus aureus (GC 3053)” value (Staphylococcus sp.; strain GC 3053) was 2 µg/mL (≈ 1.43 µM), the “MIC Staphylococcus aureus (GC 4541)” value (Staphylococcus sp.; strain GC 4541) was 2 µg/mL (≈ 1.43 µM) and the “MIC Staphylococcus aureus (GC 4542)” value (Staphylococcus sp.; strain GC 4542) was 2 µg/mL (≈ 1.43 µM). For the same compound, the “MIC Staphylococcus aureus-SMITH (GC 4543)” value (Staphylococcus sp.; strain GC 4543) was 2 µg/mL (≈ 1.43 µM), the “MIC Staphylococcus aureus (GC 4544)” value (Staphylococcus sp.; strain GC 4544) was 8 µg/mL (≈ 5.73 µM) and the “MIC Staphylococcus aureus (GC 4545)” value (Staphylococcus sp.; strain GC 4545) was 2 µg/mL (≈ 1.43 µM). The “MIC Staphylococcus haemolyticus (GC 4546)” value (Staphylococcus sp.; strain GC 4546) was 2 µg/mL (≈ 1.43 µM), the “MIC Coagulase Negative Staphylococcus (GC 4547)” value (Staphylococcus sp.; strain GC 4547) was 2 µg/mL (≈ 1.43 µM) and the “MIC Coagulase Negative Staphylococcus (GC 4548)” value (Staphylococcus sp.; strain GC 4548) was 2 µg/mL (≈ 1.43 µM). The “MIC Coagulase Negative Staphylococcus (GC 4549)” value (Staphylococcus sp.; strain GC 4549) was 2 µg/mL (≈ 1.43 µM), the “MIC Coagulase Negative Staphylococcus (GC 4551)” value (Staphylococcus sp.; strain GC 4551) was 4 µg/mL (≈ 2.87 µM) and the “MIC Coagulase Negative Staphylococcus (GC 6257)” value (Staphylococcus sp.; strain GC 6257) was 1 µg/mL (≈ 0.717 µM). The “MIC Enterococcus avium (GC 4558)” value (Enterococcus sp.) was 4 µg/mL (≈ 2.87 µM), the “MIC Enterococcus faecalis (ATCC 29212)” value (Enterococcus sp.) was 16 µg/mL (≈ 11.5 µM) and the “MIC Enterococcus faecalis (GC 2242)” value (Enterococcus sp.) was 8 µg/mL (≈ 5.73 µM). The “MIC Enterococcus faecalis (GC 2691)” value (Enterococcus sp.) was 8 µg/mL (≈ 5.73 µM), the “MIC Enterococcus faecalis (GC 3059)” value (Enterococcus sp.) was 16 µg/mL (≈ 11.5 µM) and the “MIC Enterococcus faecalis (GC 4552)” value (Enterococcus sp.) was 8 µg/mL (≈ 5.73 µM). The “MIC Enterococcus faecalis (GC 4553)” value (Enterococcus sp.) was 8 µg/mL (≈ 5.73 µM), the “MIC Enterococcus faecalis (GC 4554)” value (Enterococcus sp.) was 8 µg/mL (≈ 5.73 µM) and the “MIC Enterococcus faecalis (GC 6189)” value (Enterococcus sp.) was 8 µg/mL (≈ 5.73 µM). The “MIC Enterococcus faecium (GC 2243)” value (Enterococcus sp.) was 8 µg/mL (≈ 5.73 µM), the “MIC Enterococcus faecium (GC 4556)” value (Enterococcus sp.) was 8 µg/mL (≈ 5.73 µM) and the “MIC Enterococcus faecium (GC 4557)” value (Enterococcus sp.) was 4 µg/mL (≈ 2.87 µM). For the same compound, the “MIC Enterococcus faecalis (ATCC 29212)” value (Enterococcus sp.; inoculum 5×10^5 CFU/mL, strain ATCC 29212) was 16 µg/mL (≈ 11.5 µM), the “MIC Enterococcus faecalis (GC 2242)” value (Enterococcus sp.; inoculum 5×10^5 CFU/mL, strain GC 2242) was 8 µg/mL (≈ 5.73 µM) and the “MIC Enterococcus faecium (GC 2243)” value (Enterococcus sp.; inoculum 5×10^5 CFU/mL, strain GC 2243) was 8 µg/mL (≈ 5.73 µM). The “MIC Enterococcus faecalis (GC 2691)” value (Enterococcus sp.; inoculum 5×10^5 CFU/mL, strain GC 2691) was 8 µg/mL (≈ 5.73 µM), the “MIC Enterococcus faecalis (GC 3059)” value (Enterococcus sp.; inoculum 5×10^5 CFU/mL, strain GC 3059) was 16 µg/mL (≈ 11.5 µM) and the “MIC Enterococcus faecalis (GC 4552)” value (Enterococcus sp.; inoculum 5×10^5 CFU/mL, strain GC 4552) was 8 µg/mL (≈ 5.73 µM). The “MIC Enterococcus faecalis (GC 4553)” value (Enterococcus sp.; inoculum 5×10^5 CFU/mL, strain GC 4553) was 8 µg/mL (≈ 5.73 µM), the “MIC Enterococcus faecalis (GC 4554)” value (Enterococcus sp.; inoculum 5×10^5 CFU/mL, strain GC 4554) was 8 µg/mL (≈ 5.73 µM) and the “MIC Enterococcus faecium (GC 4556)” value (Enterococcus sp.; inoculum 5×10^5 CFU/mL, strain GC 4556) was 8 µg/mL (≈ 5.73 µM). For the same compound, the “MIC Enterococcus faecium (GC 4557)” value (Enterococcus sp.; inoculum 5×10^5 CFU/mL, strain GC 4557) was 4 µg/mL (≈ 2.87 µM), the “MIC Enterococcus avium (GC 4558)” value (Enterococcus sp.; inoculum 5×10^5 CFU/mL, strain GC 4558) was 4 µg/mL (≈ 2.87 µM) and the “MIC Enterococcus faecalis (GC 6189)” value (Enterococcus sp.; inoculum 5×10^5 CFU/mL, strain GC 6189) was 8 µg/mL (≈ 5.73 µM). The median effective dose (ED50), Staphylococcus aureus-SMITH (GC 4543) [2] was 0.5 mg/kg.
